Experimental data published in patent publication US20240327334A1, “Covalent Inhibitors As Antiviral Agents” (Enanta Pharmaceuticals, Inc., priority 2022, published 2024).

Target: SARS-CoV-2 Papain-like (PLpro) protease (Severe acute respiratory syndrome coronavirus 2, UniProt P0DTD1)
Experiment: SARS-CoV-2 Papain-like (PLpro) protease biochemical enzyme inhibition assay (ubiquitin-fluorophore substrate, Ub-R110)
Conditions: not given

SMILES	IC50 [nM]
CCOP(=O)(/C=C/CCNC(=O)C(=O)NCc1ccccc1C(=O)N[C@H](C)c1cccc2ccccc12)OCC [Example 12]	> 10000

Same assay, conditions: Ub-R110 substrate; run in duplicate; read-out: PLpro IC50

SMILES	IC50 [nM]
C=C(CNC(=O)C(=O)NCc1ccccc1C(=O)N[C@H](C)c1cccc2ccccc12)C(=O)O [Example 42]	> 10000
COc1ccc(C#C[C@H](C)NC(=O)C(=O)NCc2ccccc2C(=O)NC2(c3ccc4nn(C)cc4c3)CC2)c(C#N)c1 [Example 112]	< 100
N#C[C@@H]1CCN1C(=O)C(=O)NCc1ccccc1C(=O)NC1(c2cccc3ccccc23)CC1 [Example 119]	1000 to 10000
C#CCNC(=O)C(=O)NCc1ccccc1C(=O)NC1(c2cc(Oc3cccc(OC)c3)cc(C(F)(F)F)c2)CC1 [Example 63]	> 10000
N#Cc1ccc(C#CCNC(=O)C(=O)NCc2ccccc2C(=O)NC2(c3ccc4ccccc4c3)CC2)s1 [Example 92]	1000 to 10000
C[C@@H](C#Cc1ccc(F)cc1C#N)NC(=O)C(=O)NCc1ccccc1C(=O)NC1(c2ccc3nn(C)cc3c2)CC1 [Example 101]	100 to 1000
Cc1nn(C)cc1-c1cc(Cl)cc(C2(NC(=O)c3ccccc3CNC(=O)C(=O)NCC#N)CC2)c1 [Example 482]	< 100
COC(=O)/C=C/CCNC(=O)C(=O)NC(C)c1ccccc1C(=O)N[C@H](C)c1cccc2ccccc12 (stereo partly drawn) [Example 51]	> 10000
CC(C)(C)OC(=O)N1CC[C@@H](CNC(=O)C(=O)NCc2ccccc2C(=O)NC2(c3cccc4ccccc34)CC2)C1 [Example 507]	> 10000
CN(C#N)NC(=O)C(=O)NCc1ccccc1C(=O)NC1(c2ccc(F)c3ccccc23)CC1 [Example 124]	1000 to 10000
C[C@@H](NC(=O)c1ccccc1CNC(=O)C(=O)NCC/C=C/P(=O)(O)O)c1cccc2ccccc12 [Example 13]	> 10000
C[C@@H](NC(=O)c1ccccc1CNC(=O)C(=O)NC/C=C/C(=O)O)c1cccc2ccccc12 [Example 14]	1000 to 10000
N#CN1CC[C@@H]1CNC(=O)C(=O)NCc1ccccc1C(=O)NC1(c2cccc3ccccc23)CC1 [Example 498]	100 to 1000
O=C(NCc1ccccc1C(=O)NC1(c2ccc(F)c3ccccc23)CC1)C(=O)N[C@H]1CNC1=O [Example 122]	> 10000
COc1cc(C2(NC(=O)c3ccccc3CNC(=O)C(=O)NC[C@@H]3CCCN3)CC2)cc2cn(C3CC3)nc12 [Example 511]	1000 to 10000
C#CCNC(=O)C(=O)NCc1ccccc1C(=O)NC1(c2cc(Cl)c3nn(C4CC4)cc3c2)CC1 [Example 339]	< 100
N#Cc1ccc(C#CCNC(=O)C(=O)NCc2ccccc2C(=O)NC2(c3ccc4ccccc4c3)CC2)c(C(F)(F)F)c1 [Example 95]	100 to 1000
C#C[C@H](C)NC(=O)C(=O)NCc1ccccc1C(=O)NC1(c2cc(F)cc(-c3cnn(C4CC4)c3)c2)CC1 [Example 141]	100 to 1000
Cn1ccc(C#CCNC(=O)C(=O)NCc2ccccc2C(=O)NC2(c3ccc4ccccc4c3)CC2)n1 [Example 397]	100 to 1000
COC(=O)/C=C/CNC(=O)C(=O)NCc1c(F)cc(F)cc1C(=O)N[C@H](C)c1cccc2ccccc12 [Example 30]	100 to 1000
COC(=O)/C=C/CNC(=O)C(=O)NCc1ccccc1C(=O)N[C@H](C)c1cc(-c2ccccc2)cc(C(F)(F)F)c1 [Example 35]	< 100
C[C@@H](NC(=O)c1ocnc1CNC(=O)C(=O)NCC#N)c1cccc2ccccc12 [Example 365]	> 10000
COc1cc(C2(NC(=O)c3ccccc3CNC(=O)C(=O)NC[C@@H]3CCN3C#N)CC2)cc2cn(C3CC3)nc12 [Example 516]	< 100
N#CCNC(=O)C(=O)NCc1ccccc1C(=O)NC1(c2cccc(Cl)c2Cl)CC1 [Example 378]	100 to 1000
C[C@@H](NC(=O)c1ccccc1CNC(=O)C(=O)NC/C=C/C(=O)N1CC[C@H](C#N)C1)c1cccc2ccccc12 [Example 550]	> 10000

SMILES	IC50 [nM]
N#CCNC(=O)C(=O)NCc1ccccc1C(=O)NC1(c2cc(Cl)cc(-c3cnc(C(F)(F)F)nc3)c2)CC1 [Example 72]	100 to 1000
C[C@@H](NC(=O)c1ccccc1CNC(=O)C(=O)NCC#N)c1cc(-c2ccsc2)cc(C(F)(F)F)c1 [Example 466]	> 10000
C#CCNC(=O)C(=O)NCc1ccccc1C(=O)NC1(c2cc(Oc3cccc(C(F)(F)F)c3)cc(C(F)(F)F)c2)CC1 [Example 65]	> 10000
N#CCNC(=O)C(=O)NCc1ccccc1C(=O)NC1(c2cccc(-c3ccc(F)cc3)c2F)CC1 [Example 379]	< 100
COC(=O)/C=C/CCNC(=O)C(=O)NCC1C[C@@H]1C(=O)N[C@H](C)c1cccc2ccccc12 (stereo partly drawn) [Example 19]	> 10000
N#CCNC(=O)C(=O)NCc1ccccc1C(=O)NC1(c2ccnc3c2ccn3C2CC2)CC1 [Example 406]	< 100
CC(C)(O)Cn1cc(-c2cc(F)cc(C3(NC(=O)c4ccccc4CNC(=O)C(=O)NCC#N)CC3)c2)cn1 [Example 282]	100 to 1000
N#CCNC(=O)C(=O)NCc1ccccc1C(=O)NC1(c2cc(-c3cn(-c4ccc(F)cc4F)nn3)cc(C(F)(F)F)c2)CC1 [Example 58]	> 10000
CCCOC(=O)/C=C/CNC(=O)C(=O)NCc1ccccc1C(=O)NC1(c2cccc3ccccc23)CC1 [Example 552]	100 to 1000
O=C(NCC#Cc1nccs1)C(=O)NCc1ccccc1C(=O)NC1(c2cc(Cl)cc(-c3nccs3)c2)CC1 [Example 488]	< 100
COc1cc(C2(NC(=O)c3ccccc3CNC(=O)C(=O)NC/C=C/c3ccccn3)CC2)cc2cn(C3CC3)nc12 [Example 581]	100 to 1000
Cc1cccc(C)c1NC(=O)/C=C/CNC(=O)C(=O)NCc1ccccc1C(=O)NC1(c2cccc3ccccc23)CC1 [Example 562]	> 10000
C[C@@H](NC(=O)c1cc(F)cc(F)c1CNC(=O)C(=O)NCC#N)c1cccc2ccccc12 [Example 361]	> 10000
Cn1ccc2c(C3(NC(=O)c4ccccc4CNC(=O)C(=O)NCC#N)CC3)cccc21 [Example 533]	100 to 1000
O=C(C#CCNC(=O)C(=O)NCc1ccccc1C(=O)NC1(c2cc(-c3cccs3)cc(C(F)(F)F)c2)CC1)NC1CC1 [Example 522]	100 to 1000
N#CN1CC(CNC(=O)C(=O)NCc2ccccc2C(=O)NC2(c3ccc4ccccc4c3)CC2)C1 [Example 430]	100 to 1000
CC(C)(O)/C=C/c1cc(C2(NC(=O)c3ccccc3CNC(=O)C(=O)NCC#N)CC2)c2ccccc2c1 [Example 422]	< 100
C#CCNC(=O)C(=O)NCc1ccccc1C(=O)NC1(c2cc(-c3c(C)nn(C)c3C)ccc2Cl)CC1 [Example 395]	100 to 1000
O=C(C#CCNC(=O)C(=O)NCc1ccccc1C(=O)NC1(c2cc(-c3cnn(C4CC4)c3)cc(C(F)(F)F)c2)CC1)NC1CC1 [Example 534]	100 to 1000
N#CC1CCCN1C(=O)C(=O)NCc1ccccc1C(=O)NC1(c2cccc3ccccc23)CC1 (stereo not drawn) [Example 41]	> 10000
COc1cc(C2(NC(=O)c3ccccc3CNC(=O)C(=O)NC/C=C/c3cnccn3)CC2)cc2cn(C3CC3)nc12 [Example 579]	100 to 1000
CC#CCNC(=O)C(=O)NCc1ccccc1C(=O)NC1(c2cccc3ccccc23)CC1 [Example 150]	1000 to 10000
N#C[C@H]1CCN1C(=O)C(=O)NCc1ccccc1C(=O)NC1(c2cccc3ccccc23)CC1 [Example 120]	> 10000
O=C(NC/C=C/c1nccs1)C(=O)NCc1ccccc1C(=O)NC1(c2ccc3ccccc3c2)CC1 [Example 583]	100 to 1000
C#CCNC(=O)C(=O)NCc1ccccc1C(=O)NC1(c2cc(-c3c(C)cnn3C)cc(C(F)(F)F)c2)CC1 [Example 475]	100 to 1000
